In patent US20230192691A1, “HETEROCYCLIC COMPOUNDS AS BTK INHIBITORS” (Beijing InnoCare Pharma Tech Co., Ltd., priority 2020, published 2023) one finds IC50 data, which are given here for 19 molecules.

Test [1] deals with T1, human-derived recombinant BTK protein (Homo sapiens, UniProt Q06187).
T1 construct: purchased Carna Biosciences 08-180
Briefly: BTK activity inhibition assay (HTRF in vitro kinase assay). The format is biochemical. The settings on record: 40 μM ATP, 0.2 ng/μL BTK. As for the experimental part: In vitro kinase assay was used to evaluate the effects of compounds of the present invention on BTK activity (Table 1).
(§1) By using the homogeneous time-resolved fluorescence (HTRF) kinase detection kit (Cisbio, catalog number 62TK0PEC), the enzymatic activity of BTK is determined by detecting the phosphorylation level of the substrate in the kinase reaction. The reaction buffer contains the enzyme reaction buffer (1×) from the kit, 5 mM MgCl2, 1 mM DTT, 10 nM SEB and 0.01% Tween-20; the kinase reaction solution contains human-derived recombinant BTK protein (Carna Biosciences, Catalog No. 08-180) diluted to 0.2 ng/μL with the reaction buffer; the substrate reaction solution contains biotin-labeled tyrosine kinase substrate diluted to 0.5 μM with the reaction buffer and 40 μM ATP; the detection buffer contains Eu^3+-labeled cage antibody diluted to 0.05 ng/μL and streptavidin-labeled XL665 antibody diluted to 31.25 nM with the reaction buffer; the test compound is dissolved and diluted to 100 μM with DMSO, followed by a 4-fold serial dilution with DMSO to the lowest concentration of 6.1 nM and finally 40-time dilution with the reaction buffer for each concentration point. If the IC50 value of the compound is very low, the initial concentration of the compound is reduced.
(§2) Add 4 μL test compound solution and 2 μL kinase reaction solution to a 384-well detection plate (Corning, catalog number 3674), mix well and incubate at room temperature for 15 minutes; add 4 μL substrate reaction solution and incubate for 50 minutes; add 10 μL detection buffer, mix well and stand for 60 minutes; detect signal at 620 nm and 665 nm using an Envision plate reader (Perkin Elmer). The signal value (absorbance at 665 nm/absorbance at 620 nm) is positively correlated with the degree of phosphorylation of the substrate, thereby detecting the kinase activity of BTK. In this experiment, the group without BTK is the negative control (100% inhibition) and the group with BTK but no compound is the positive control (0% inhibition). The inhibition curve is plotted and the corresponding IC50 value of the test compound is calculated using XLfit software (ID Business Solutions Ltd., UK).

For test [2], the target named is T2, human recombinant BTK C481S protein (Homo sapiens, UniProt Q06187, C481S).
T2 construct: made in house
T2 sequence (Q06187 whole entry C481S): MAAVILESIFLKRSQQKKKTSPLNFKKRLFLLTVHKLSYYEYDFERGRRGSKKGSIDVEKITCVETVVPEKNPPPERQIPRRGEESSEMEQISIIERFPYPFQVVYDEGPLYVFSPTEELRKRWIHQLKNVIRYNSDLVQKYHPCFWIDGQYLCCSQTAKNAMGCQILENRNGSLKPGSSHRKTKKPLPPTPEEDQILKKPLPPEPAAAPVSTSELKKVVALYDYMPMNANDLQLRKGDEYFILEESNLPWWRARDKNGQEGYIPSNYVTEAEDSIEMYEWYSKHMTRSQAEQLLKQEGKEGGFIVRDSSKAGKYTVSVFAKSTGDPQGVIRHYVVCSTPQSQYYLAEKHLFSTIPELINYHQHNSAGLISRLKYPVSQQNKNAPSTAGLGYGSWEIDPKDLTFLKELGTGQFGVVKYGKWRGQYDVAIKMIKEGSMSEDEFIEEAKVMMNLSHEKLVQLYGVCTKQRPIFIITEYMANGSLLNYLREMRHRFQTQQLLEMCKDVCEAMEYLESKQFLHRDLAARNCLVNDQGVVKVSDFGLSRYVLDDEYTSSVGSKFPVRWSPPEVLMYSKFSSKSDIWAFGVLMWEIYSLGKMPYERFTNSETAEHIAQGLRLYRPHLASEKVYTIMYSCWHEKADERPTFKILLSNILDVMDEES
Description: BTK C481S activity inhibition assay (HTRF in vitro kinase assay). The format is biochemical. The settings on record: 35 μM ATP, 1.5 ng/μL BTK C481S. The method, then:
In vitro kinase assay was used to evaluate the effects of compounds of the present invention on BTK C481S activity (Table 1).
as §1, with “BTK C481S” for “BTK”, “nM SEB,” for “nM SEB”, “contains human” for “contains human-derived”, “protein (purified in-house)” for “protein (Carna Biosciences, Catalog No. 08-180)”, “to 1.5” for “to 0.2”, “and 35” for “and 40”
as §2, with “activity of BTK C481S. In this” for “activity of BTK. In this”, “with BTK C481 S but no” for “with BTK but no”, “XLfit software (TD Business Solutions” for “XLfit software (ID Business Solutions”

Molecules are shown by their SMILES.

T1 sequence (Q06187 whole entry): as the sequence (Q06187 whole entry C481S) above, with S481C counted along it

On to `COc1ccc(F)cc1C(=O)NCc1ccc(-c2nc([C@]3(C)CC[C@](C)(C(=O)O)CC3)n3ncnc(N)c23)cc1` [Compound 46, (1s,4s)-4-(4-amino-5-(4-((5-fluoro-2-methoxybenzamido)methyl)phenyl)imidazo[5,1-f][1,2,4]triazin-7-yl)-1,4-dimethylcyclohexane-1-carboxylic acid], for which the values for the IC50 in test [1] and in test [2] were 7.7 nM and 1.6 nM, respectively.

In the case of `COc1ccc(F)cc1C(=O)NCc1ccc(-c2nc(C3(C(F)(F)F)CC3)n3ccnc(N)c23)cc1` [Compound 42, N-(4-(8-amino-3-(1-(trifluoromethyl)cyclopropyl)imidazo[1,5-a]pyrazin-1-yl)benzyl)-5-fluoro-2-methoxybenzamide], the results for the IC50 in test [1] and in test [2] were 1.7 nM and 4.3 nM, respectively.

Consider `COc1ccc(F)cc1C(=O)NCc1ccc(-c2nc(C3CCOC3)n3ncnc(N)c23)cc1` (centres unmarked) [Compound 17, N-(4-(4-amino-7-(tetrahydrofuran-3-yl)imidazo[5,1-f][1,2,4]triazin-5-yl)benzyl)-5-fluoro-2-methoxybenzamide], for which the IC50 in test [1] is 6.3 nM; in test [2], 2.4 nM.

On to `COc1ccc(F)cc1C(=O)NCc1ccc(-c2nc([C@H]3CC[C@H](C(=O)O)CC3)n3ccnc(N)c23)cc1` [Compound 13, (1r,4r)-4-(8-amino-1-(4-((5-fluoro-2-methoxybenzamido)methyl)phenyl)imidazo[1,5-a]pyrazin-3-yl)cyclohexane-1-carboxylic acid], for which the IC50 in test [1] came out at 1.4 nM; in test [2], 0.8 nM.

On to `COc1ccc(F)cc1C(=O)NCc1ccc(-c2nc(C34CCC(CO)(CC3)CC4)n3ccnc(N)c23)cc1` [Compound 35, N-(4-(8-amino-3-(4-(hydroxymethyl)bicyclo[2.2.2]octan-1-yl)imidazo[1,5-a]pyrazin-1-yl)benzyl)-5-fluoro-2-methoxybenzamide], for which the IC50 came out at 0.6 nM in test [1] and 1.5 nM in test [2].

As to `COc1ccc(F)cc1C(=O)NCc1ccc(-n2c(=O)n(C(C)C(F)(F)F)c3ncnc(N)c32)cc1` (centres unmarked) [Compound 53, N-(4-(6-amino-8-oxo-9-(1,1,1-trifluoropropan-2-yl)-8,9-dihydro-7H-purin-7-yl)benzyl)-5-fluoro-2-methoxybenzamide], the IC50 in test [1] amounted to 5.6 nM; in test [2] it was 21 nM.

In the case of `COc1ccc(F)cc1C(=O)NCc1ccc(-c2nc([C@H]3CC[C@H](CN)CC3)n3ccnc(N)c23)cc1` [Compound 7, N-(4-(8-amino-3-((1r,4r)-4-(aminomethyl)cyclohexyl)imidazo[1,5-a]pyrazin-1-yl)benzyl)-5-fluoro-2-methoxybenzamide], the IC50 in test [1] is 3.4 nM; in test [2], 1.7 nM.

In the case of `COc1ccc(F)cc1C(=O)NCc1ccc(-c2nc([C@]3(C)CC[C@@](C)(C(=O)O)CC3)n3ccnc(N)c23)cc1` [Compound 32, (1r,4r)-4-(8-amino-1-(4-((5-fluoro-2-methoxybenzamido)methyl)phenyl)imidazo[1,5-a]pyrazin-3-yl)-1,4-dimethylcyclohexane-1-carboxylic acid], the IC50 in test [1] was determined as 2.4 nM; in test [2] it was 6.3 nM.

Take `COc1ccc(F)cc1C(=O)NCc1ccc(-c2nc(N3CCOCC3)n3ncnc(N)c23)cc1` [Compound 45, N-(4-(4-amino-7-morpholinoimidazo[5,1-f][1,2,4]triazin-5-yl)benzyl)-5-fluoro-2-methoxybenzamide]: the IC50 in test [1] was found to be 9.4 nM; in test [2] it was 2.6 nM.

In the case of `COc1ccc(F)cc1C(=O)NCc1ccc(-n2c(=O)n(C34CCC(C(=O)O)(CC3)CC4)c3ncnc(N)c32)cc1` [Compound 48, 4-(6-amino-7-(4-((5-fluoro-2-methoxybenzamido)methyl)phenyl)-8-oxo-7,8-dihydro-9H-purin-9-yl)bicyclo[2.2.2]octane-1-carboxylic acid], the figures for the IC50 in test [1] and in test [2] were 1.2 nM and 8.2 nM, respectively.

`COC(=O)C12CC(c3nc(-c4ccc(CNC(=O)c5cc(F)ccc5OC)cc4)c4c(N)ncnn34)(C1)C2` [Compound 29, methyl 3-(4-amino-5-(4-((5-fluoro-2-methoxybenzamido)methyl)phenyl)imidazo[5,1-f][1,2,4]triazin-7-yl)bicyclo[1.1.1]pentane-1-carboxylate]: the IC50 in test [1] stood at 1.2 nM; in test [2], 2.1 nM.

On to `CNC(=O)[C@H]1CC[C@H](c2nc(-c3ccc(CNC(=O)c4cc(F)ccc4OC)cc3)c3c(N)nccn32)CC1` [Compound 23, N-(4-(8-amino-3-((1r,4r)-4-(methylcarbamoyl)cyclohexyl)imidazo[1,5-a]pyrazin-1-yl)benzyl)-5-fluoro-2-methoxybenzamide], for which the IC50 is 1 nM in test [1] and 3 nM in test [2].

For `COc1ccc(F)cc1C(=O)NCc1ccc(-n2c(=O)n([C@H]3CC[C@H](CO)CC3)c3ncnc(N)c32)cc1` [Compound 50, N-(4-(6-amino-9-((1r,4r)-4-(hydroxymethyl)cyclohexyl)-8-oxo-8,9-dihydro-7H-purin-7-yl)benzyl)-5-fluoro-2-methoxybenzamide], the IC50 in test [1] was found to be 2.4 nM; in test [2], 20 nM.

For the molecule `COc1ccc(F)cc1C(=O)NCc1ccc(-c2nc(C3(C(F)(F)F)CC3)n3ncnc(N)c23)cc1` [Compound 43, N-(4-(4-amino-7-(1-(trifluoromethyl)cyclopropyl)imidazo[5,1-f][1,2,4]triazin-5-yl)benzyl)-5-fluoro-2-methoxybenzamide], the IC50 in test [1] was 2.7 nM; in test [2] it was 5.4 nM.

As to `COc1ccc(F)cc1C(=O)NCc1ccc(-c2nc([C@@H]3CCNC3)n3ncnc(N)c23)cc1` [Compound 22, (R)-N-(4-(4-amino-7-(pyrrolidin-3-yl)imidazo[5,1-f][1,2,4]triazin-5-yl)benzyl)-5-fluoro-2-methoxybenzamide], the values for the IC50 in test [1] and in test [2] were 155 nM and 36 nM, respectively.

`COc1ccc(F)cc1C(=O)NCc1ccc(-n2c(=O)n(C3CCOCC3)c3ncnc(N)c32)cc1` [Compound 51, N-(4-(6-amino-8-oxo-9-(tetrahydro-2H-pyran-4-yl)-8,9-dihydro-7H-purin-7-yl)benzyl)-5-fluoro-2-methoxybenzamide]: the IC50 in test [1] stood at 4 nM; in test [2] it was 9.2 nM.

Take `[2H]C([2H])([2H])Oc1ccc(F)cc1C(=O)NCc1ccc(-c2nc(C3CCCOC3)n3ccnc(N)c23)cc1` (centres unmarked) [Compound 25, N-(4-(8-amino-3-(tetrahydro-2H-pyran-3-yl)imidazo[1,5-a]pyrazin-1-yl)benzyl)-5-fluoro-2-(methoxy-dz)benzamide]: the IC50 in test [1] amounted to 1.1 nM; in test [2] it was 1.5 nM.

Take `COc1ccc(F)cc1C(=O)NCc1ccc(-c2nc(N3CCC(CO)CC3)n3ccnc(N)c23)cc1` [Compound 6, N-(4-(8-amino-3-(4-(hydroxymethyl)piperidin-1-yl)imidazo[1,5-a]pyrazin-1-yl)benzyl)-5-fluoro-2-methoxybenzamide]: the values for the half-inhibitory concentration (IC50) in test [1] and in test [2] were 4.6 nM and 3.3 nM, respectively.

For the molecule `COc1ccc(F)cc1C(=O)NCc1ccc(-c2nc(C34CCC(C(=O)O)(CC3)CC4)n3ccnc(N)c23)cc1` [Compound 34, 4-(8-amino-1-(4-((5-fluoro-2-methoxybenzamido)methyl)phenyl)imidazo[1,5-a]pyrazin-3-yl)bicyclo[2.2.2]octane-1-carboxylic acid], the IC50 was found to be 0.9 nM in test [1] and 1.5 nM in test [2].
